Experiments:
[1] = target: pendrin (ssPendrin, SLC26A4) (Sus scrofa, UniProt A0A480E679, Q101L/T224A); assay: inhibition of […]-HCO3- uptake in proteoliposomes of purified mutant; format: biochemical
[2] = target: T1, pendrin (ssPendrin, SLC26A4) (Sus scrofa, UniProt A0A480E679); assay: cryo-EM structure at […] Å; inhibition of […]-HCO3- uptake in proteoliposomes of purified protein; format: biochemical
T1 construct: C-terminal TEV site and 8x His-tag
T1 sequence (A0A480E679 1-780): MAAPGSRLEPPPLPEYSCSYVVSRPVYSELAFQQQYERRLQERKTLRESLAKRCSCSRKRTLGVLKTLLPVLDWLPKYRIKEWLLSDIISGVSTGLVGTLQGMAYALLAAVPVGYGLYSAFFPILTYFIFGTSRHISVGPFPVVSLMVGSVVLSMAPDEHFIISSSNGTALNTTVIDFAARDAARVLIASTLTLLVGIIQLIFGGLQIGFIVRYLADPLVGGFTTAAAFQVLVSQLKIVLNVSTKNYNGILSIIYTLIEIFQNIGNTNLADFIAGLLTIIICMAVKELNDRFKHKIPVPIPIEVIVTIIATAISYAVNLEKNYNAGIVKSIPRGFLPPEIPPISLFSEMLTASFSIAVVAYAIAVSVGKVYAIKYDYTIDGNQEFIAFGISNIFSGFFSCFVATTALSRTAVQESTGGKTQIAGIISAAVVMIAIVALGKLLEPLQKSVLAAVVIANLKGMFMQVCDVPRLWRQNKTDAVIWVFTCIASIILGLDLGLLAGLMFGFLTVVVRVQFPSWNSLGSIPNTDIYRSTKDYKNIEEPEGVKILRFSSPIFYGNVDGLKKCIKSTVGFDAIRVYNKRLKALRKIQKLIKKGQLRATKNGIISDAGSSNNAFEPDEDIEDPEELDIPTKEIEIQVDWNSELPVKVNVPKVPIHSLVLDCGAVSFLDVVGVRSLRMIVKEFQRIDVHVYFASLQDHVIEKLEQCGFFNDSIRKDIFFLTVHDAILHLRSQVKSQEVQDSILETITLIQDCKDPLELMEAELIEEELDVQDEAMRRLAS

[3] = target: pendrin (ssPendrin, SLC26A4) (Sus scrofa, UniProt A0A480E679, T224V); assay: inhibition of […]-HCO3- uptake in proteoliposomes of purified mutant; format: biochemical
[4] = target: pendrin (ssPendrin, SLC26A4) (Sus scrofa, UniProt A0A480E679, Q101L); assay: as above; format: biochemical
[5] = target: pendrin from Sus scrofa (ssPendrin) (Sus scrofa); assay: cryo-EM structure; purified ssPendrin in 20 mM HEPES pH 7.5, 2 mM BME, 0.02% GDN with 150 mM NaCl, NaI, NaHCO3 or Na gluconate, or 150 mM NaCl and 10 mM NFA; refined with C2 symmetry

Chain of pendrin (ssPendrin, SLC26A4) (Sus scrofa, UniProt A0A480E679, Q101L) (A0A480E679 entry or part of it Q101L): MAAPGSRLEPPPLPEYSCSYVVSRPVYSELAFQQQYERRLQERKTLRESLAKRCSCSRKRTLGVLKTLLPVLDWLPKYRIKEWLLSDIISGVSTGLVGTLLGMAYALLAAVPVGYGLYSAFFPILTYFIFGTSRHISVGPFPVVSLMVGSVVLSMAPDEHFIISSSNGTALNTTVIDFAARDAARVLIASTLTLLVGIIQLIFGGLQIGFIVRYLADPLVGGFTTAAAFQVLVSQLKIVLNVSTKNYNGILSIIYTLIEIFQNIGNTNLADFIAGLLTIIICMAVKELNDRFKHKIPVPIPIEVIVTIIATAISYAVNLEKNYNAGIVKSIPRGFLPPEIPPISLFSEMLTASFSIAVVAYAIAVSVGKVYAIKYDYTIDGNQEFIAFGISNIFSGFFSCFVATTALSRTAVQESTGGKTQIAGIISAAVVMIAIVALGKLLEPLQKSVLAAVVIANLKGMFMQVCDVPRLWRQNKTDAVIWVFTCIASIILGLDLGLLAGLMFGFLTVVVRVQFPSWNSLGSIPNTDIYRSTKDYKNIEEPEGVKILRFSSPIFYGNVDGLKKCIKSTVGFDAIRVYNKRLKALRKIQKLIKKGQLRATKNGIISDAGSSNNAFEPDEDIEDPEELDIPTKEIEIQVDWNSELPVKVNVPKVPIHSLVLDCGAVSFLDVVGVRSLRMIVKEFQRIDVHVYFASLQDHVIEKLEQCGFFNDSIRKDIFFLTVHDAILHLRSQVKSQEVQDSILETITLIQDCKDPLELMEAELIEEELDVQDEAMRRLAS
Chain of pendrin (ssPendrin, SLC26A4) (Sus scrofa, UniProt A0A480E679, T224V) (A0A480E679 entry or part of it T224V): as the sequence (A0A480E679 entry or part of it Q101L) above, with L101Q, T224V counted along it
Chain of pendrin (ssPendrin, SLC26A4) (Sus scrofa, UniProt A0A480E679, Q101L/T224A) (A0A480E679 entry or part of it Q101L/T224A): as the sequence (A0A480E679 entry or part of it Q101L) above, with T224A counted along it

| stoichiometry N [5] | Molecule | IC50 [1] [µM] | IC50 [2] [µM] | IC50 [3] [µM] | IC50 [4] [µM] |
| --- | --- | --- | --- | --- | --- |
| – | O=C(O)c1cccnc1Nc1cccc(C(F)(F)F)c1 [NFA, niflumic acid] | 16.3 | 15.5 ± 1.5 | 9.5 | 31.2 |
| 2 | pendrin from Sus scrofa (ssPendrin) (natural protein) | – | – | – | – |

From paper PMC10771415, “Mechanism of anion exchange and small-molecule inhibition of pendrin” (Nature Communications, 2024)
